How the values were obtained:
[1] = target: T1, L-type calcium channel (LTCC) (Rattus norvegicus, UniProt P22002); assay: FLIPR calcium mobilization assay for L-type calcium channel; type: cell-based; conditions: calcium mobilization in vitro assay, HEK293 cells expressing recombinant rat LTCC subunits (α1c, α2δ, β1), 90 mM KCl
T1 construct: expressed in transfected cells; pcDNA6.2DEST α1c, pcDNA3.2DEST β1, pcDNA3.1-Zeo α2δ)
Protocol: Recombinant human embryonal kidney cells (HEK293, ATCC) stably transfected with either N-type calcium channel (NTCC) subunits (α1b, α2δ, and β3) or L-type calcium channel (LTCC) subunits (α1c, α2δ, and β1) were routinely cultured in growth medium consisting of Dulbecco's Modified Eagles Medium containing 10% FBS, 100 U/mL penicillin, 100 μg/mL streptomycin, 4 mM L-glutamine, 500 μg/mL geneticin (G418), 20 μg/mL Blasticidin S (InVivogen, San Diego, Calif.) and 500 μg/mL zeocin (InVivogen).
FLIPR Calcium Mobilization Assay for L-type Calcium Channel. One day prior to performing this assay, HEK293 cells stably expressing recombinant rat L-type calcium channel (LTCC) subunits (α1c, α2δ, and β1) were trypsinized, then seeded on poly-D-lysine-coated 96-well clear-bottom black plates (Becton Dickinson, Franklin Lakes, N.J.) at 75,000 cells/well. On the day of the assay, the plates were washed with LTCC wash buffer (127 mM NaCl, 2 mM MgCl2, 700 μM NaH2PO4, 5 mM CaCl2, 5 mM NaHCO3, 8 mM HEPES, 10 mM glucose, pH 7.4), then loaded with 0.1 mL of LTCC wash buffer containing Fluo-4 (3 μM final concentration, Molecular Probes, Eugene, Oreg.). After 1 hour, the cells were washed with 0.1 mL LTCC wash buffer and resuspended in 0.05 mL LTCC assay buffer (same composition as LTCC wash buffer). Plates were then transferred to a FLIPR^96 for assay. The FLIPR measured basal Fluo-4 fluorescence for 15 seconds, then added 0.05 mL of each compound tested diluted in LTCC assay buffer at final concentrations ranging from about 846 pM to about 17 μM. Fluo-4 fluorescence was then measured for 5 minutes. 0.1 mL KCl agonist dissolved in LTCC assay buffer was then added to the cells to produce a final concentration of 90 mM KCl, and fluorescence was measured for another 45 seconds. Data were collected over the entire time course and analyzed using Excel, Graph Pad Prism, or an in-house regression analysis software.
L-type Recombinant Cell Line Development. L-type calcium channel expressing HEK-293 cells were created in two stages. Stage 1 was created as follows. The rat α1c, and β1 cDNA expression constructs (2.5 μg each) were co-transfected into human embryonic kidney (HEK-293) cells by Lipofectamine Plus reagent (Invitrogen), as per manufacturer's instructions. 24 hours later, cells were split in limiting dilution into multiple 96-well plates in selection media containing 20 μg/mL blasticidin and 500 μg/mL geneticin, and incubated for 3 weeks at 37° C., 5% CO2, 95% humidity. […] The FLIPR measured basal Fluo-4 fluorescence for 315 seconds, then added 0.1 mL KCl agonist dissolved in LTCC buffer and measured fluorescence for another 45 seconds. […] Data were collected over the entire time course and analyzed using Excel, Graph Pad Prism, or Activity Base software. […]

[2] = target: T2, N-type calcium channel (NTCC) (Homo sapiens, UniProt Q00975); assay: FLIPR calcium mobilization assay for N-type calcium channel; type: cell-based; conditions: calcium mobilization in vitro assay, differentiated IMR32 cells, 90 mM KCl, 5 μM nitrendipine
T2 construct: endogenous in cells; host or cells: IMR32 cells (ATCC), differentiated with dibutyryl cAMP and bromodeoxyuridine
T2 sequence (Q00975 whole entry): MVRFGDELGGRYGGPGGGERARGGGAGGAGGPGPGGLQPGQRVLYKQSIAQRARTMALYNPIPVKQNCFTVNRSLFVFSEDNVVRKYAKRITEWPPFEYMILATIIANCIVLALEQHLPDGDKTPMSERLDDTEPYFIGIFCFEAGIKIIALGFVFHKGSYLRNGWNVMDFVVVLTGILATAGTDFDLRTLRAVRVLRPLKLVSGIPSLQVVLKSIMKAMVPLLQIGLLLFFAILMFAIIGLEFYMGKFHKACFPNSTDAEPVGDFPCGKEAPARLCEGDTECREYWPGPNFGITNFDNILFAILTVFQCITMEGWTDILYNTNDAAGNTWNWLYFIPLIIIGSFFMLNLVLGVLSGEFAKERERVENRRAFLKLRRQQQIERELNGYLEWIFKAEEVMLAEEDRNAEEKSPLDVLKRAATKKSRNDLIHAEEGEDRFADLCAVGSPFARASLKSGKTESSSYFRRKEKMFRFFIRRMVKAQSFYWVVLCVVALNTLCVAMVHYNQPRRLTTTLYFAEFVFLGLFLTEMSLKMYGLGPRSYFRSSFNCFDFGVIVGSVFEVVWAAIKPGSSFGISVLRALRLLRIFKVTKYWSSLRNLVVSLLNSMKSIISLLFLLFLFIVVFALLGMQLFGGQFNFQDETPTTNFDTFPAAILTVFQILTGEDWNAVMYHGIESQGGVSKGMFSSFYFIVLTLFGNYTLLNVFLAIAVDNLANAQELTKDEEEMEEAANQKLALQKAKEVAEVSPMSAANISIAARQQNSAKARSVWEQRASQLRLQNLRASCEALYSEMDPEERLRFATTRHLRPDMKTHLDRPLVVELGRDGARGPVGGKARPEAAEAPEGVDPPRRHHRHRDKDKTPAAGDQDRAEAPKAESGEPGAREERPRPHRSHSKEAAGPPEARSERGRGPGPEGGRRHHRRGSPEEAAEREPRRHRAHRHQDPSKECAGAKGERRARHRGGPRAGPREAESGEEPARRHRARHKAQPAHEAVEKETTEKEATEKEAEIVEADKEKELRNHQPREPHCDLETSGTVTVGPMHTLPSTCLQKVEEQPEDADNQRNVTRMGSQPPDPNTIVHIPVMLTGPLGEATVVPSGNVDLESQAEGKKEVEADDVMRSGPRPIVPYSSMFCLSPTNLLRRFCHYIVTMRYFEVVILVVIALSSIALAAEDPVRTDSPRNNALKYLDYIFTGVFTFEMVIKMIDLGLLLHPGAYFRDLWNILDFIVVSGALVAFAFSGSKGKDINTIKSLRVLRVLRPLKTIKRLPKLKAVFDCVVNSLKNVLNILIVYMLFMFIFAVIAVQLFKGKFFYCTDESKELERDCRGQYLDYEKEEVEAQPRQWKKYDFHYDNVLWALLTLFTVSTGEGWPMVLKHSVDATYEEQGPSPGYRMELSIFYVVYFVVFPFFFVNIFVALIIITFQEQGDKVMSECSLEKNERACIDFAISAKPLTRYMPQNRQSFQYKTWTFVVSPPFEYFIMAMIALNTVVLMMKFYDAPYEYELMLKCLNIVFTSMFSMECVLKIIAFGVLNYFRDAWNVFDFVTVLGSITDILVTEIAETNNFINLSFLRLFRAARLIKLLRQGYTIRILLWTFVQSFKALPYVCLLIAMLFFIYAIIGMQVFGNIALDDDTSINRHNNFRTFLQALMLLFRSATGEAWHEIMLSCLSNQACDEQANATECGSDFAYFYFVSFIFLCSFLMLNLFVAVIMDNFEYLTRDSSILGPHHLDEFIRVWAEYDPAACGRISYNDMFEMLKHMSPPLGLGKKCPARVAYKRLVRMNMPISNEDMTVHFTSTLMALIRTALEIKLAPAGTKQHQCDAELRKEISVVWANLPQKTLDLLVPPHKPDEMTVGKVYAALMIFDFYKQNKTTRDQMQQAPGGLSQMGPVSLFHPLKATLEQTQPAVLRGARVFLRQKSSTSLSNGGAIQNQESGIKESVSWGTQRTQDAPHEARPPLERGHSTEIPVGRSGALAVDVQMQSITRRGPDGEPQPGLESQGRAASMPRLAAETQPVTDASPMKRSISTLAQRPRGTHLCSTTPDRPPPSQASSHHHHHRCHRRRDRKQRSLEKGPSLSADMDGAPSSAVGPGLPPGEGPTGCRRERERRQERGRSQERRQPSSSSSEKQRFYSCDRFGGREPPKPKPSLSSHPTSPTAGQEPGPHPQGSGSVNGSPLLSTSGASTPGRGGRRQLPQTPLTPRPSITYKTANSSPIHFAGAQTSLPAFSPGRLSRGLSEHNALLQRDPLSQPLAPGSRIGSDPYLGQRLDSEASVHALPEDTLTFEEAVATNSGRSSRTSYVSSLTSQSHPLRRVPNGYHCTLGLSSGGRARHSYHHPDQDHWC
T2 sequence (P54289 25-956 partner limits assumed): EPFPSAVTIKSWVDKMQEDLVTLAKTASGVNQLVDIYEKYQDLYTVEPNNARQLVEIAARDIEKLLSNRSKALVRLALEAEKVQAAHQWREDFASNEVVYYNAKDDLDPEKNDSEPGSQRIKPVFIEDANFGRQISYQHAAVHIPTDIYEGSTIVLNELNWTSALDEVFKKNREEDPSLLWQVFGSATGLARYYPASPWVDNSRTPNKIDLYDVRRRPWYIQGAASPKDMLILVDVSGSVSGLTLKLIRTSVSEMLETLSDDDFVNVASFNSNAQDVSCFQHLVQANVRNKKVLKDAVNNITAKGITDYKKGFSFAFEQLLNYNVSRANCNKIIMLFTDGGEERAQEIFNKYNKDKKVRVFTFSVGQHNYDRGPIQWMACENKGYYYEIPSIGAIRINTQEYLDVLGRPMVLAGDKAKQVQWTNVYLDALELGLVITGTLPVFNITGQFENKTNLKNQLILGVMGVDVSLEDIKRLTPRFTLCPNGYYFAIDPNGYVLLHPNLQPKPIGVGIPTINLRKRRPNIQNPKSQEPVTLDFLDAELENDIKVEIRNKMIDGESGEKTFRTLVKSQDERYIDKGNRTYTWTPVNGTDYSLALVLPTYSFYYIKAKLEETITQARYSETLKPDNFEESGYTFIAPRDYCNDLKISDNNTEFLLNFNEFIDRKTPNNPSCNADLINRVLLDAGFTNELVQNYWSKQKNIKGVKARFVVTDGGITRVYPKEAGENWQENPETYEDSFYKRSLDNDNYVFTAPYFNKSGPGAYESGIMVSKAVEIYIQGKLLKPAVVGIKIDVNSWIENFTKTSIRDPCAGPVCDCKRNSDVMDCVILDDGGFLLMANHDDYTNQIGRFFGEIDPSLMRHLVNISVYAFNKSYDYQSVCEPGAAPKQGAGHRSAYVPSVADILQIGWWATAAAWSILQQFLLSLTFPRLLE
T2 sequence (P54289 957-1103 partner limits assumed): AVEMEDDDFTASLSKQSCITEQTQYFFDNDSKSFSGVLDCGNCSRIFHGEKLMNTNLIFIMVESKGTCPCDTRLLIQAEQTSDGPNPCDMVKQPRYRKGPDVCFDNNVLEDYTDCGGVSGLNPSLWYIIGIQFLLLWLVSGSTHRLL
T2 sequence (P54284 whole entry partner): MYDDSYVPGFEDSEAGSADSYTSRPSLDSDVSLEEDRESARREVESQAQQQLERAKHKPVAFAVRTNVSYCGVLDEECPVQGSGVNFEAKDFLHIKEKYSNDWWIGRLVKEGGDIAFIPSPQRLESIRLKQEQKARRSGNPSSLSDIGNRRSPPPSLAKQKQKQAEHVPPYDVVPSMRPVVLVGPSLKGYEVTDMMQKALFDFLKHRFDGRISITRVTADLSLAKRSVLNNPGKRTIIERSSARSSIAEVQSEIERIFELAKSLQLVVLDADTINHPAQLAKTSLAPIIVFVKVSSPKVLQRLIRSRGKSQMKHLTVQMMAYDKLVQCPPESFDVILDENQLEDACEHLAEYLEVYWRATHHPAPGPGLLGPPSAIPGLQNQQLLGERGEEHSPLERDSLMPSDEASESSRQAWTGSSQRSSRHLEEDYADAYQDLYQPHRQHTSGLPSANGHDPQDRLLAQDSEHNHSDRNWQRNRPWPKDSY
Protocol: Cell maintenance and differentiation. Unless noted otherwise, cell culture reagents were purchased from Mediatech of Herndon, Md. IMR32 cells (American Type Culture Collection, ATCC, Manassas, Va.) were routinely cultured in growth medium consisting of minimum essential medium containing 10% fetal bovine serum (FBS, Hyclone, Logan, Utah), 100 U/mL penicillin, 100 μg/mL streptomycin, 2 mM L-glutamine, 1 mM sodium pyruvate, and 1×MEM non-essential amino acids. 80-90% confluent flasks of cells were differentiated using the following differentiation medium: Growth medium plus 1 mM dibutyryl cyclic AMP (Sigma, St. Louis, Mo.), and 2.5 μM bromodeoxyuridine (Sigma). Cells were differentiated for 8 days by replacing differentiation medium every 2-3 days.
FLIPR Calcium Mobilization Assay for N-type Calcium Channel. One day prior to performing this assay, differentiated IMR32 cells were treated with 1× CellStripper, and seeded on poly-D-lysine-coated 96-well clear-bottom black plates (Becton Dickinson, Franklin Lakes, N.J.) at 200,000 cells/well. On the day of the assay, the cell plates were washed with IMR32 buffer (127 mM NaCl, 1 mM KCl, 2 mM MgCl2, 700 μM NaH2PO4, 5 mM CaCl2, 5 mM NaHCO3, 8 mM HEPES, 10 mM glucose, pH 7.4), then pre-stimulated with KCl and loaded as follows: 0.05 mL of IMR32 buffer, 0.05 mL of each compound tested diluted in IMR32 buffer containing 20 μM nitrendipine (Sigma), and 0.1 mL KCl dissolved in IMR32 buffer, plus Fluo-4 were added (3 μM final concentration, Molecular Probes, Eugene, Oreg.). Final test compound concentrations ranged from about 846 μM to about 17 μM, final nitrendipine concentration was 5 μM, and final KCl concentration was 90 mM. After 1 hour, the cells were washed twice with 0.05 mL of each compound tested in nitrendipine-containing IMR32 buffer (no KCl or Fluo-4), and then replaced with 0.1 mL of each compound tested in nitrendipine-containing IMR32 buffer. Plates were then transferred to a Fluorimetric Imaging Plate Reader (FLIPR^96, Molecular Devices, Inc., Sunnyvale, Calif.) for assay. The FLIPR measured basal Fluo-4 fluorescence for 315 seconds (i.e., 5 minutes and 15 seconds), then added 0.1 mL KCl agonist dissolved in IMR32 buffer and measured fluorescence for another 45 seconds. Final test compound concentrations on the cells after FLIPR read ranged from about 846 pM to about 17 μM, final nitrendipine concentration was 5 μM, and final KCl concentration was 90 mM. Data were collected over the entire time course and analyzed using Excel, Graph Pad Prism (version 3.02, Graph Pad, San Diego, Calif.), or an in-house non-linear regression analysis software.

Row | SMILES | IC50 [1] [nM] | IC50 [2] [nM]
1 | O=C(CNC1CCN(S(=O)(=O)c2cccc(C(F)(F)F)c2)CC1)Nc1ccc(F)cc1 [Compound 6, N-(4-Fluorophenyl)-2-[1-(3-trifluoromethyl-benzenesulfonyl)-piperidin-4-ylamino]acetamide] | > 20000 | 460
2 | O=C(CNC1CCN(S(=O)(=O)c2cccc(C(F)(F)F)c2)C1)Nc1ccc(F)cc1 (stereo not drawn) [Compound 10, N-(4-Fluorophenyl)-2-[1-(3-trifluoromethylbenzenesulfonyl)-pyrrolidin-3-ylamino]-acetamide] | 5980 | 470
3 | O=C(CN(C1CC1)C1CCN(S(=O)(=O)c2cccc(C(F)(F)F)c2)CC1)Nc1ccc(F)cc1 [Compound 14, 2-{Cyclopropyl-[1-(3-trifluoromethylbenzenesulfonyl)-piperidin-4-yl]amino}-N-(4-fluorophenyl)acetamide] | 9330 | 790
4 | O=C(CNC1CCN(S(=O)(=O)c2cccc(C(F)(F)F)c2)CC1)Nc1cc(C(F)(F)F)cc(C(F)(F)F)c1 [Compound 18, N-(3,5-Bis-(trifluoromethyl)phenyl)-2-[1-(3-trifluoromethyl-benzenesulfonyl)piperidin-4-ylamino]acetamide] | > 20000 | 740
5 | O=C(CC(=O)NC1CCN(S(=O)(=O)c2cccc(C(F)(F)F)c2)CC1)Nc1ccc(F)cc1F [Compound 23, N-(2,4-Difluorophenyl)-N′-[1-(3-trifluoromethylbenzenesulfonyl)-piperidin-4-yl]malonamide] |  | 1290
